Series [1] can be described thus: Half life in Sprague-Dawley rat at 1.0 mg/kg, iv measured for 5 min to 72 hrs by LC-MS/MS analysis. Format: ADME, organism-based. The conditions noted are these: in vivo.
The target in series [2] is BDNF/NT-3 growth factors receptor (Homo sapiens, UniProt Q16620). The series is described as follows: Inhibition of recombinant human His-tagged TRKB catalytic domain (526 to 838 residues) expressed in baculovirus expression system using biotin as substrate preincubated for 5 mins followed by substrate addition and measured after 30 to 60 mins in presence of ATP by HTRF assay.

Series [3] deals with Ephrin type-B receptor 4 (Homo sapiens) (UniProt P54760). The series is described as follows: Inhibition of recombinant full length human His-tagged EPHB4 expressed in baculovirus expression system at 1 uM using biotin as substrate preincubated for 5 mins followed by substrate addition and measured after 30 to 60 mins in presence of ATP by HTRF assay relative to control. Background: In TR-FRET formats the signal depends on donor and acceptor labels being close together.

In a further series the test system is HT-29. The series is described as follows: Antiproliferative activity against human HT-29 cells at 10 uM incubated for 72 hrs by MTT assay relative to control. The series is classed as functional. The following applies: HT-29, 72 h. For orientation: Formazan colour is commonly taken as a measure of viable cells.
Series [4] is described as follows: Cmax in Sprague-Dawley rat at 5.0 mg/kg, ig measured for 15 min to 72 hrs by LC-MS/MS analysis. The series is classed as ADME, organism-based. The following applies: in vivo, po. Further details: dose 5 mg/kg, route intragastric.
The target of series [5] is cAMP-dependent protein kinase catalytic subunit alpha (Homo sapiens) (UniProt P17612). Briefly: Inhibition of recombinant full length human His-tagged PRKACA expressed in Escherichia coli at 1 uM using biotin as substrate preincubated for 5 mins followed by substrate addition and measured after 30 to 60 mins in presence of ATP by HTRF assay relative to control.
In series [6] the target is Macrophage-stimulating protein receptor (Homo sapiens, UniProt Q04912). The series is described as follows: Inhibition of recombinant human GST-tagged RON expressed in baculovirus system at 1 uM using biotin as substrate preincubated for 5 mins followed by substrate addition and measured after 30 to 60 mins in presence of ATP by HTRF assay relative to control.
Series [7] in a line: Clearance in Sprague-Dawley rat at 1.0 mg/kg, iv measured for 5 min to 72 hrs by LC-MS/MS analysis. Format: ADME, organism-based. The following applies: in vivo.
Series [8] addresses Tyrosine-protein kinase JAK1 (Homo sapiens) (UniProt P23458). Briefly: Inhibition of recombinant full length human GST-tagged JAK1 expressed in baculovirus expression system at 1 uM using biotin as substrate preincubated for 5 mins followed by substrate addition and measured after 30 to 60 mins in presence of ATP by HTRF assay relative to control.
The target of series [9] is Tyrosine-protein kinase BTK (Homo sapiens) (UniProt Q06187). Briefly: Inhibition of recombinant full length human His-tagged BTK expressed in baculovirus expression system at 1 uM using biotin as substrate preincubated for 5 mins followed by substrate addition and measured after 30 to 60 mins in presence of ATP by HTRF assay relative to control.
The target in series [10] is Proto-oncogene tyrosine-protein kinase Src (Homo sapiens) (UniProt P12931). The series is described as follows: Inhibition of recombinant full length human untagged SRC expressed in baculovirus expression system at 1 uM using biotin as substrate preincubated for 5 mins followed by substrate addition and measured after 30 to 60 mins in presence of ATP by HTRF assay relative to control.

Series [11] concerns the target Fibroblast growth factor receptor 1 (Homo sapiens) (UniProt P11362). Briefly: Inhibition of recombinant human N-terminal His-tagged FGFR1 catalytic domain (399 to 822 residues) expressed in baculovirus infected Sf21 insect cells at 1 uM using biotin as substrate preincubated for 5 mins followed by substrate addition and measured after 30 to 60 mins in presence of ATP by HTRF assay relative to control.

Series [12] addresses Receptor-type tyrosine-protein kinase FLT3 (Homo sapiens) (UniProt P36888). The series is described as follows: Inhibition of recombinant full length human His-tagged FLT3 expressed in baculovirus expression system at 1 uM using biotin as substrate preincubated for 5 mins followed by substrate addition and measured after 30 to 60 mins in presence of ATP by HTRF assay relative to control.

Series [13] deals with Tyrosine-protein kinase receptor TYRO3 (Homo sapiens, UniProt Q06418). The series is described as follows: Inhibition of recombinant human GST-tagged RSE catalytic domain (451 to 890 residues) expressed in baculovirus expression system using biotin as substrate preincubated for 5 mins followed by substrate addition and measured after 30 to 60 mins in presence of ATP by HTRF assay.

In series [14] the target is Serine/threonine-protein kinase pim-1 (Homo sapiens) (UniProt P11309). Briefly: Inhibition of recombinant full length human His-tagged PIM1 expressed in baculovirus expression system at 1 uM using biotin as substrate preincubated for 5 mins followed by substrate addition and measured after 30 to 60 mins in presence of ATP by HTRF assay relative to control.
Series [15] concerns the target Mast/stem cell growth factor receptor Kit (Homo sapiens) (UniProt P10721). The series is described as follows: Inhibition of recombinant human N-terminal GST-tagged c-Kit (544 to end residues) expressed in baculovirus infected Sf21 insect cells at 1 uM using biotin as substrate preincubated for 5 mins followed by substrate addition and measured after 30 to 60 mins in presence of ATP by HTRF assay relative to control.

Series [16] deals with Tyrosine-protein kinase Lck (Homo sapiens) (UniProt P06239). The series is described as follows: Inhibition of recombinant full length human His-tagged LCK expressed in baculovirus expression system at 1 uM using biotin as substrate preincubated for 5 mins followed by substrate addition and measured after 30 to 60 mins in presence of ATP by HTRF assay relative to control.

The nature of series [17]: Cmax in Sprague-Dawley rat at 1.0 mg/kg, iv measured for 5 min to 72 hrs by LC-MS/MS analysis. The series is classed as ADME, organism-based. Further details: dose 1 mg/kg, route intravenous. The conditions noted are these: in vivo.
The target in series [18] is Tyrosine-protein kinase Mer (Homo sapiens) (UniProt Q12866). Briefly: Inhibition of recombinant human GST-tagged cMER (578 to 872 residues) expressed in baculovirus infected Sf21 insect cells at 1 uM using biotin as substrate preincubated for 5 mins followed by substrate addition and measured after 30 to 60 mins in presence of ATP by HTRF assay relative to control.
Series [19] addresses Vascular endothelial growth factor receptor 3 (Homo sapiens, UniProt P35916). The series is described as follows: Inhibition of recombinant human GST-tagged FLT4 catalytic domain (800 to 1297 residues) expressed in baculovirus expression system using biotin as substrate preincubated for 5 mins followed by substrate addition and measured after 30 to 60 mins in presence of ATP by HTRF assay.

Series [20] in a line: AUC (0 to infinity) in Sprague-Dawley rat at 5.0 mg/kg, ig measured for 15 min to 72 hrs by LC-MS/MS analysis. Format: ADME, organism-based. Also on record: dose 5 mg/kg, time infinity, route intragastric. The conditions noted are these: in vivo, po.
The species entered for another series is Homo sapiens. Briefly: Selectivity index, ratio of IC50 for purified recombinant VEGFR2 kinase domain (unknown origin) to IC50 for purified recombinant MET kinase domain (unknown origin).
Series [21] deals with Mitogen-activated protein kinase 14 (Homo sapiens) (UniProt Q16539). The series is described as follows: Inhibition of recombinant full length human GST-tagged MAPK14 expressed in Escherichia coli at 1 uM using biotin as substrate preincubated for 5 mins followed by substrate addition and measured after 30 to 60 mins in presence of ATP by HTRF assay relative to control.

Usually half-life stands for the time in which the quantity being followed falls by half. Higher therefore signals slow decline. As a reminder, the IC50 is the concentration needed to halve the response being measured. By inhibition is commonly meant the change of the read-out against control, counted positive when it falls. For orientation: Cmax means the highest concentration seen after dosing. One may read the clearance as the volume of plasma or blood freed of the substance per unit of time. Read a low clearance as a low capacity for elimination. A word on the AUC(0-inf): it is the area under the concentration-time curve extrapolated to infinity. Read a high AUC(0-inf) as high exposure.

Mast/stem cell growth factor receptor Kit (Homo sapiens), sequence (P10721 whole entry): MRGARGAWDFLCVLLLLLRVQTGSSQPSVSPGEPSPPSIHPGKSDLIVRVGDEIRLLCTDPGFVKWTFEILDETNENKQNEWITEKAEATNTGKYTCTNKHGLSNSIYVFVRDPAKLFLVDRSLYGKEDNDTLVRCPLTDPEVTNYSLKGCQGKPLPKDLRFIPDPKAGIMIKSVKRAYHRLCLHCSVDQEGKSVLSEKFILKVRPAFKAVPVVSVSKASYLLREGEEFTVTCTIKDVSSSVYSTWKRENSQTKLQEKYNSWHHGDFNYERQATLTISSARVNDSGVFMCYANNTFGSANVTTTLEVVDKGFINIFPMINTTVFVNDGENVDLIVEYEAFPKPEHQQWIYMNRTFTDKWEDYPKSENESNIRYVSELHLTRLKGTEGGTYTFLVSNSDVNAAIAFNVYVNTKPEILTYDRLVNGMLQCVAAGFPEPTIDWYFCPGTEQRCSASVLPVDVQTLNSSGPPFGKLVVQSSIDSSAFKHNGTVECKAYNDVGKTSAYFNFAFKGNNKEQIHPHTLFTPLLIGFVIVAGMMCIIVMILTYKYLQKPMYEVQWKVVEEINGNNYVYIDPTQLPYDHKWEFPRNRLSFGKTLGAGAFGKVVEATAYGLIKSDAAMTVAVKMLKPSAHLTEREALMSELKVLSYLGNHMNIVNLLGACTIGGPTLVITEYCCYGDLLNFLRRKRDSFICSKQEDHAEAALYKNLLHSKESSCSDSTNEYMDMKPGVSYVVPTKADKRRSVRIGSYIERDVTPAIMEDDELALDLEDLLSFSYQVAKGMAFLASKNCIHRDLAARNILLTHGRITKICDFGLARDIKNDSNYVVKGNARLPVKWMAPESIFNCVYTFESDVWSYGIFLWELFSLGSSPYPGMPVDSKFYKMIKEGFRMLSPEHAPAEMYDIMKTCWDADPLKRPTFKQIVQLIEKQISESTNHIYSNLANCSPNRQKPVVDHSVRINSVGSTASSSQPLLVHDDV
Fibroblast growth factor receptor 1 (Homo sapiens), sequence (P11362 22-822 limits assumed): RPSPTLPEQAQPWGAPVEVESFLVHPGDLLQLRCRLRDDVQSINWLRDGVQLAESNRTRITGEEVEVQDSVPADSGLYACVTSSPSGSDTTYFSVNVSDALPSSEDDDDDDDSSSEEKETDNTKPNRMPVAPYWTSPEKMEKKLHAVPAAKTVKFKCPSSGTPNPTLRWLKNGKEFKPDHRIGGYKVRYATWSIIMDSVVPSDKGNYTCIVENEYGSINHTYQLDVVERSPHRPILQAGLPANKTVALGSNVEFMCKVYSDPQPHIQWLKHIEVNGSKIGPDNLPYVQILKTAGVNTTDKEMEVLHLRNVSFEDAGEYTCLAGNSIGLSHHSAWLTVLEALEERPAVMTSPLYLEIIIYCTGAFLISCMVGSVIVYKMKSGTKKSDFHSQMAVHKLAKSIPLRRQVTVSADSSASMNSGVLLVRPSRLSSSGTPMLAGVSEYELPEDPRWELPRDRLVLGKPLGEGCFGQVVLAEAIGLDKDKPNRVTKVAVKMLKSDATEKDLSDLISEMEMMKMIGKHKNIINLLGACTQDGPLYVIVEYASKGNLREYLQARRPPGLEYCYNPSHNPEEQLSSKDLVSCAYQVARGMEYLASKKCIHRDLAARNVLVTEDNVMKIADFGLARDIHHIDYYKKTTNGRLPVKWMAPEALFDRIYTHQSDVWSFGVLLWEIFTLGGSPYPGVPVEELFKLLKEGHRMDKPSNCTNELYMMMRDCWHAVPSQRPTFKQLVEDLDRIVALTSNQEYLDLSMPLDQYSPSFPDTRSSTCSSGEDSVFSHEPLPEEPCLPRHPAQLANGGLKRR
Tyrosine-protein kinase Mer (Homo sapiens), sequence (Q12866 whole entry, the tested form may be a part): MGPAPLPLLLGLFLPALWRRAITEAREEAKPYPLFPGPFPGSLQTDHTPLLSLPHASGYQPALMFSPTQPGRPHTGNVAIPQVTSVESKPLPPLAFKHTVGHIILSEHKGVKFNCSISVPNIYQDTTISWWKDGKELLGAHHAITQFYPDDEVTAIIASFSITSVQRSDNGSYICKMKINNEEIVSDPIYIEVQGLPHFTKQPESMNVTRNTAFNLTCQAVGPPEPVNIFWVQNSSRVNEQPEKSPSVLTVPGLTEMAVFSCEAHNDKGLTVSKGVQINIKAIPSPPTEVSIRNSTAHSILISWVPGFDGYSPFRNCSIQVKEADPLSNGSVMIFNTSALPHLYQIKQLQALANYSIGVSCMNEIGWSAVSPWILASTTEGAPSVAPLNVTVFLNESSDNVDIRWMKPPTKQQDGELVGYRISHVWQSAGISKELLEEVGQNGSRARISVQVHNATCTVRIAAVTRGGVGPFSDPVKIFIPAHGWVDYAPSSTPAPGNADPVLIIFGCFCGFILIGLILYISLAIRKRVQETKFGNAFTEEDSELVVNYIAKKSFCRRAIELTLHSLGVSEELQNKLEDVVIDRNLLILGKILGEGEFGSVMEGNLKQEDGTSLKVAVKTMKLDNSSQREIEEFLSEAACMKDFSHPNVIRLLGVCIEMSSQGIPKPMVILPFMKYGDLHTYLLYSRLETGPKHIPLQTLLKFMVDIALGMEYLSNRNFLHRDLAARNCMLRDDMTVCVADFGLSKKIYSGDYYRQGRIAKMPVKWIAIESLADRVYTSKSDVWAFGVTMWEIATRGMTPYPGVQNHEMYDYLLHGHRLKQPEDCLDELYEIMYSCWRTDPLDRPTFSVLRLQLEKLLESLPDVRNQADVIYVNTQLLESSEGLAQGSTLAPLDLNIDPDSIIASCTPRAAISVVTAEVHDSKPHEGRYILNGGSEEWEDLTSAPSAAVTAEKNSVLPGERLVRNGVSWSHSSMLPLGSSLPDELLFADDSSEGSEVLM
Receptor-type tyrosine-protein kinase FLT3 (Homo sapiens), sequence (P36888 whole entry): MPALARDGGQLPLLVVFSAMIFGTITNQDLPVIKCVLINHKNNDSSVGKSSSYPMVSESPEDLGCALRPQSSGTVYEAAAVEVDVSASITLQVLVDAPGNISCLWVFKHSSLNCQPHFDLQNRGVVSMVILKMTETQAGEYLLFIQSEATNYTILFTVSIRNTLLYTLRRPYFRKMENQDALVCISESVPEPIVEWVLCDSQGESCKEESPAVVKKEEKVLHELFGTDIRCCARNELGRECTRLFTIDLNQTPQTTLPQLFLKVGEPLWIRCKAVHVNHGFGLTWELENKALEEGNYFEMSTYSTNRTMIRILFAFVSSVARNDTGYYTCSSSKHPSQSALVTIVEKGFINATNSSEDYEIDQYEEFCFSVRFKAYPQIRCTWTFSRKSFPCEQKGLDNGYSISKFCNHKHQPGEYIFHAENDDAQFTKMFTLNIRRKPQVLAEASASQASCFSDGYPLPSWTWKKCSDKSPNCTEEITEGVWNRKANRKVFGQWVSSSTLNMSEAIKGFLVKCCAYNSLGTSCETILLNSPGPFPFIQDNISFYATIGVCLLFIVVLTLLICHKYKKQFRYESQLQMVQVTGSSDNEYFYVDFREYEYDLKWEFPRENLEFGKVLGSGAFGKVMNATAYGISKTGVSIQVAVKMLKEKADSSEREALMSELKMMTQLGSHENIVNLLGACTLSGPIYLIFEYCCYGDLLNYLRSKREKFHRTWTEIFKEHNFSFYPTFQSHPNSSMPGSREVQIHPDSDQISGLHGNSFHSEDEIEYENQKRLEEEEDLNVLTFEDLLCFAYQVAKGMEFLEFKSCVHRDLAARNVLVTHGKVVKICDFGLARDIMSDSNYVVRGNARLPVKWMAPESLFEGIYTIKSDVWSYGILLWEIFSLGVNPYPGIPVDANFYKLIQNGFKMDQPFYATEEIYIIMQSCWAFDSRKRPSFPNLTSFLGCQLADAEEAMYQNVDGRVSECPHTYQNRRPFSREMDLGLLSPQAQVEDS
Proto-oncogene tyrosine-protein kinase Src (Homo sapiens), sequence (P12931 2-536 limits assumed): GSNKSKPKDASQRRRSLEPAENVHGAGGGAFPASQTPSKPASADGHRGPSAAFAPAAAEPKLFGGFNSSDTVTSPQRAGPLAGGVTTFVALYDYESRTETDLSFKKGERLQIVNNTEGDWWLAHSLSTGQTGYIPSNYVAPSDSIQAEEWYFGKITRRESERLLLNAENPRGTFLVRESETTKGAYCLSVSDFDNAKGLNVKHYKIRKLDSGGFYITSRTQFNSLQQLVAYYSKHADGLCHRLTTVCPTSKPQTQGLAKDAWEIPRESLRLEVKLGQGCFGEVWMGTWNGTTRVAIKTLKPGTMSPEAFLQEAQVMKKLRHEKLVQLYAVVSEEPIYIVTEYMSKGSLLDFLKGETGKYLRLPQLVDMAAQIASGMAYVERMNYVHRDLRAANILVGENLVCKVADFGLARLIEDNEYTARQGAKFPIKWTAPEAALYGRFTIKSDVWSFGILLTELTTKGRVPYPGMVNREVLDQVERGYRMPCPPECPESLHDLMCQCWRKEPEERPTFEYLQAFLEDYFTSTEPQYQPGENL
Tyrosine-protein kinase BTK (Homo sapiens), sequence (Q06187 whole entry): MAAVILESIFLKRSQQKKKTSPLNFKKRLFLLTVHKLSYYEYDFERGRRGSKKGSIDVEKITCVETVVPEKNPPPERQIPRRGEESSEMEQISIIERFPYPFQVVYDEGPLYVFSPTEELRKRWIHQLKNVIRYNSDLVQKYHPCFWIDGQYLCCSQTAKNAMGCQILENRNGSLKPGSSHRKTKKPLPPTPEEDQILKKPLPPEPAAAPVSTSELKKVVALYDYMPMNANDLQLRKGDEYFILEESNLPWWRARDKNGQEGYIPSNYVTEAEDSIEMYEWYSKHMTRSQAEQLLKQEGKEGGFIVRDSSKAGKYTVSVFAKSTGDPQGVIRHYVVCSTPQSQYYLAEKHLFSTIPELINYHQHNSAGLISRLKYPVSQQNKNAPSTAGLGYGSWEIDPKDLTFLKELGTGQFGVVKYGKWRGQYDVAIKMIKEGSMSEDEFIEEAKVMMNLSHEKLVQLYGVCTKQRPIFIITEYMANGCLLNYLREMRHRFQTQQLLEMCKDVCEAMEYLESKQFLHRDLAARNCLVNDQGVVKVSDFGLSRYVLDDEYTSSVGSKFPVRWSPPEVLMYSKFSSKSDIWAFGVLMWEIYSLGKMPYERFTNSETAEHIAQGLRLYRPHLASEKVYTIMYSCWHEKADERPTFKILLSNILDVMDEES

For `Cn1cc(-c2ccc(F)cc2)c(=O)c2c(Nc3ccc(Oc4ccnc(NC(=O)C5CC5)c4)c(F)c3)nccc21`, in series [1], the half-life was 25.4 h. Besides, the results for the IC50 in [2], in series [13] and in series [19] were 58.8 nM, 41.1 nM and 591 nM, respectively. Moreover, the inhibition is 50 to 79% in [3]; under 50% in series [5]; 50 to 79% in [6]; under 50% in [8]; under 50% in series [9]; under 50% in series [10]. For the same molecule, the inhibition in series [11] was under 50%; in series [12], over 80%; in series [14], under 50%; in series [15] it was under 50%; in series [16], 50 to 79%; in [18] it was over 80%. The inhibition in series [21] was under 50%. Besides, in the series with HT-29, the inhibition at 10 µM was 24.8%. Moreover, the Cmax in series [4] was determined as 7800 ng/mL; in series [17], 6500 ng/mL. Further, the clearance in [7] is 0.167 mL/min/kg. This molecule also gave an AUC(0-inf) in [20] of 233 µg·h/mL. Moreover, in the series listed under Homo sapiens, the Ratio IC50 is 3230.

For the origin of these results see ChEMBL document CHEMBL4373740, “Synthesis and biological evaluation of new MET inhibitors with 1,6-naphthyridinone scaffold” (Eur J Med Chem, 2020).
